Drawing on patent publication US20240309028A1, “PHOSPHOLIPID COMPOUNDS AND METHODS OF MAKING AND USING THE SAME” (Gilead Sciences, Inc., priority 2023, published 2024), this text covers EC50 for two molecules.

One may read the EC50 as the midpoint of the concentration-response curve.

What all share (assay type): cell-based
In assay [1] the test system is Human Rhinovirus 1B (HRVIB). Nature of the assay: H1-HeLa HRV-CTG EC50, HRV1B. The conditions noted are these: Rhinovirus A, 96 h, H1-HeLa cells, MOI 0.5, 4 days, Celltiter-Glo, read-out: EC50 H1-HeLa_HRV1B_HRV-CTG 384-well Assay (per Ex. Z). An excerpt:
(§1) Example Z: H1-HeLa HRV-CTG EC50
(§2) H1-Hela cell line (ATCC, Manassas, VA, Cat #CRL-1958) was maintained in Dulbecco's […] Essential Medium (DMEM) (Corning, New York, NY, Cat #15-018 CM) supplemented with 10% fetal bovine serum (FBS) (Hyclone, Logan, UT, Cat #SH30071-03), and 1× Penicillin-Streptomycin-L-Glutamine (Corning, New York, NY, Cat #30-009-CI). Cells were passaged 2 times per week to maintain sub-confluent densities and were used for experiments at passage 5-30. The Human Rhinovirus 1B (HRVIB) (ATCC, Manassas, VA, Cat #VR-1645), Human Rhinovirus 14 (HRV14) (ATCC, Manassas, VA, Cat #VR-284), and Human Rhinovirus 16 (HRV16) (ATCC, Manassas, VA, Cat #BR-283) was obtained through ATCC. Viral infection was monitored by determining viability of H1-HeLa cells as described below.
(§3) Test molecules are prepared in 100% DMSO in 384-well polypropylene plates (Greiner, Monroe, NC, Cat #784201) with 8 compounds per plate in grouped replicates of 4 at 10 serially diluted concentrations (1:3). […]
(§4) The test compounds were spotted to 384-well assay plates (Greiner, Monroe, NC, Cat #781091) at 200 nL per well using an Echo acoustic dispenser (Labcyte, Sunnyvale, CA). […] 40 μL per well of Celltiter-Glo reagent was added and the plates were incubated at room temperature for 15 minutes before reading the luminescence signal on an En Vision multimode plate reader (Perkin Elmer, Waltham, MA). […]

The subject of assay [2] is Respiratory syncytial virus recombinant with luciferase (RSV-Luc5). Nature of the assay: NHBE RSV-Luc5 384-well assay (EC50 RSVFLUC NHBE-384). The settings on record: human respiratory syncytial virus, 72 h, read-out: EC50 RSV FLUC NHBE 384 V2 (per Ex. U). An excerpt: Example U. NHBE RSV-Luc5 384-Well Assay (EC50 RSVFLUC NHBE-384)
Normal Human Bronchial Epithelial (NHBE) cells were purchased from Lonza (Walkersville, MD Cat #CC2540) and maintained in BEGM Bronchial Epithelial Cell Growth Medium BulletKit (Lonza CC-3170).
Cells were thawed, expanded, and were used for experiments at passage 2. Respiratory syncytial virus recombinant with luciferase (RSV-Luc5) (≥1×107 Infectious Units/ml (IU/ml) determined by TCID50) was purchased from Microbiologics (Saint Cloud, MN). Viral replication was determined in NHBE cells in the following manner.
Compounds are prepared in 100% DMSO in 384-well polypropylene plates (Greiner, Monroe, NC, Cat #784201) with 8 compounds per plate in grouped replicates of 4 at 10 serially diluted concentrations (1:3). The serially diluted compounds were transferred to low dead volume Echo plates (Labcyte, Sunnyvale, CA, Cat #LP-0200).
The test compounds were spotted to 384-well assay plates (Greiner, Monroe, NC, Cat #781091) at 200 nL per well. NHBE cells were harvested and suspended in BEGM Bronchial Epithelial Cell Growth Medium BulletKit and seeded to the pre-spotted assay plates at 5,000 cells per well in 30 μL. RSV-Luc5 virus was diluted in BEGM Bronchial Epithelial Cell Growth Medium BulletKit at 500,000 Infectious Units (IU) per mL and 10 μL per well was added to the assay plates containing cells and compounds, for an MOI of 1. The assay plates were incubated for 3 days at 37° C. and 5% CO2. At the end of incubation, One-Glo reagent (Promega, Madison, WI, Cat #E6120) was prepared. The assay plates and One-Glo reagent were equilibrated to room temperature for at least 15 minutes. 40 μL per well of One-Glo reagent was added and the plates were incubated at room temperature for 15 minutes before reading the luminescence signal on an En Vision multimode plate reader (Perkin Elmer, Waltham, MA). Remdesivir was used as positive control and DMSO was used as negative control. Values were normalized to the positive and negative controls (as 0% and 100% replication, respectively) and data was fitted using non-linear regression analysis by Gilead's dose response tool. The EC50 value for each compound was defined as the concentration reducing the viral replication by 50%.

For assay [3], the system named is Human Rhinovirus 14 (HRV14). The experiment in a line: H1-HeLa HRV-CTG EC50, HRV14. The settings on record: Rhinovirus B, 96 h; H1-HeLa cells, HRV14, MOI 1.0, 4 days, Celltiter-Glo; read-out: EC50 H1-HeLa_HRV14_HRV-CTG 384-well Assay (per Ex Z).
From the text: as §1, §2, §3, §4
(ATP-based viability assays read luminescence as a measure of living cells.)

Assay [4] concerns Human Rhinovirus 16 (HRV16). Nature of the assay: H1-HeLa HRV-CTG EC50, HRV16. The settings on record: Rhinovirus A, 96 h; H1-HeLa cells, HRV16, MOI 0.25, 4 days, Celltiter-Glo; read-out: EC50 H1-HeLa_HRV16_HRV-CTG 384-well Assay (per Ex. Z).
From the text: as §1, §2, §3, §4

With `N#Cc1cc(F)cc(CO[C@H](COCCCCCCCCCCCCCCCCCC(F)(F)F)COP(=O)(O)OC[C@@]2(C#N)O[C@@H](c3ccc4c(N)ncnn34)[C@H](O)[C@@H]2O)c1` [Compound 1, ((2R,3S,4R,5S)-5-(4-aminopyrrolo[2,1-f][1,2,4]triazin-7-yl)-2-cyano-3,4-dihydroxytetrahydrofuran-2-yl)methyl ((R)-2-((3-cyano-5-fluorobenzyl)oxy)-3-((18,18,18-trifluorooctadecyl)oxy)propyl) hydrogen phosphate], the EC50 in assay [1] is 12 nM; in assay [2], 26 nM; in assay [3] it was 34 nM; in assay [4], 34 nM.
With `N#Cc1cc(F)cc(CO[C@H](CCCCCCCCCCCCCCCCCCC(F)(F)F)COP(=O)(O)OC[C@@]2(C#N)O[C@@H](c3ccc4c(N)ncnn34)[C@H](O)[C@@H]2O)c1` [Compound 2, ((2R,3S,4R,5S)-5-(4-aminopyrrolo[2,1-f][1,2,4]triazin-7-yl)-2-cyano-3,4-dihydroxytetrahydrofuran-2-yl)methyl ((R)-2-((3-cyano-5-fluorobenzyl)oxy)-21,21,21-trifluorohenicosyl) hydrogen phosphate], the EC50 in assay [1] was 62 nM; in assay [2] it was 30 nM; in assay [3], 87 nM; in assay [4], 91 nM.
